33 compounds from US5430062A, “Stilbene derivatives as anticancer agents” (priority 1993, dated 1995) can be followed below.

One assay deals with MLM melanoma. The assay can be described thus: MTT cytotoxicity assay, MLM. On the technique in general: Tetrazolium assays rely on reduction of a dye to a coloured formazan, in cell work by metabolically active cells.
In the next assay the test system is A-549 lung carcinoma. Description: MTT cytotoxicity assay, A-549. The note with it: Homo sapiens, A549, […].
The test system of another assay is MCF-7 breast carcinoma. Description: MTT cytotoxicity assay, MCF-7. The following applies: Homo sapiens, MCF7, […].
Assay [1] deals with HT-29 colon adenocarcinoma. Description: MTT cytotoxicity assay, HT-29. The following applies: Homo sapiens, HT-29, […].
Another assay relates to SKMEL-5 melanoma. Description: MTT cytotoxicity assay, SKMEL-5. The following applies: Homo sapiens, SK-MEL-5, […], read-out: Cytotoxicity ED50, SKMEL-5.
[2] abbreviates: […], read-out: Cytotoxicity ED50, MLM.
The mark [3] stands for this setting: read-out: Cytotoxicity ED50, A-549.
The mark [4] stands for this setting: read-out: Cytotoxicity ED50, MCF-7.
Setting [5] is: read-out: Cytotoxicity ED50, HT-29.

Like-named read-outs stand apart in the source and are kept apart here.

For the compound `COc1ccc(/C=C/c2cc(OC)c(OC)c(OC)c2)c(Cl)c1` [6e], the IC50 in the assay on MLM melanoma ([…], read-out: Cytotoxicity ED50, MLM, MLM, MTT, six days) is > 25 µM; in the assay with A-549 lung carcinoma (read-out: Cytotoxicity ED50, A-549, A-549, MTT, six days), > 25 µM; with MCF-7 breast carcinoma (read-out: Cytotoxicity ED50, MCF-7, MCF-7, MTT, six days) it was > 25 µM; in assay [1] (read-out: Cytotoxicity ED50, HT-29, HT-29, MTT, six days) it was > 25 µM; in the assay with SKMEL-5 melanoma it was > 25 µM.
Consider `COc1cc(/C=C/c2ccc(N)cc2)cc(OC)c1OC` [6z, (E)-1-(4-Aminophenyl)-2-(3,4,5-trimethoxyphenyl)ethene], for which the IC50 (with MLM melanoma (setting [2]); with A-549 lung carcinoma (setting [3]); in the assay on MCF-7 breast carcinoma (setting [4]); in assay [1] (setting [5]); in the assay with SKMEL-5 melanoma) was > 25 µM in each case.
Consider `COc1ccc(C(=O)Nc2cc(OC)cc(OC)c2)cc1` [11e], for which the IC50 (in the assay on MLM melanoma (setting [2]); with A-549 lung carcinoma (setting [3]); with MCF-7 breast carcinoma (setting [4]); in assay [1] (setting [5]); in the assay on SKMEL-5 melanoma) was > 25 µM each time.
Turning to `COc1cc(CCc2cc(OC)c(OC)c(OC)c2)cc(OC)c1OC` [8u], the IC50 (in the assay on MLM melanoma (setting [2]); with A-549 lung carcinoma (setting [3]); in the assay on MCF-7 breast carcinoma (setting [4]); in assay [1] (setting [5]); with SKMEL-5 melanoma) was > 25 µM in each case.
As to `COc1cc(OC)c(/C=C/c2ccccc2)c(OC)c1` [6x], the IC50 (in the assay with MLM melanoma (setting [2]); in the assay on A-549 lung carcinoma (setting [3]); in the assay on MCF-7 breast carcinoma (setting [4]); in assay [1] (setting [5]); with SKMEL-5 melanoma) was > 25 µM in each case.
Turning to `COc1ccc(CNc2cc(OC)c(OC)c(OC)c2)cc1OC` [12b], the IC50 (in the assay on MLM melanoma (setting [2]); in the assay with A-549 lung carcinoma (setting [3]); in the assay with MCF-7 breast carcinoma (setting [4]); in assay [1] (setting [5]); in the assay with SKMEL-5 melanoma) was > 25 µM in each case.
In the case of `COc1cc(/C=C/c2ccc(OC(C)=O)cc2)cc(OC)c1OC` [6p, (E)-1-(4-Acetoxyphenyl)-2-(3,4,5-trimethoxyphenyl)ethene], the IC50 stood at 13 µM in the assay with MLM melanoma (setting [2]); 9.7 µM in the assay on A-549 lung carcinoma (setting [3]); 9.6 µM with MCF-7 breast carcinoma (setting [4]); 5.4 µM in assay [1] (setting [5]); 4.6 µM in the assay with SKMEL-5 melanoma.
For `COc1ccc(CCc2ccccc2)cc1OC` [8q] the same measures were > 25 µM, > 25 µM, > 25 µM, > 25 µM and > 25 µM.
As for `COc1cc(OC)c(OC)cc1CCc1cc(OC)c(OC)c(OC)c1` [8v], the IC50 (in the assay on MLM melanoma (setting [2]); with A-549 lung carcinoma (setting [3]); in the assay with MCF-7 breast carcinoma (setting [4]); in assay [1] (setting [5]); in the assay on SKMEL-5 melanoma) was > 25 µM in each case.
`COc1ccc(CNc2cc(OC)cc(OC)c2)cc1` [12e]: the IC50 (with MLM melanoma (setting [2]); in the assay on A-549 lung carcinoma (setting [3]); in the assay with MCF-7 breast carcinoma (setting [4]); in assay [1] (setting [5]); with SKMEL-5 melanoma) was > 25 µM throughout.
On to `COc1cc(/C=C/c2ccc(C(C)(C)C)cc2)cc(OC)c1OC` [16g, (E)-1-(4-t-Butylphenyl)-2-(3,4,5-trimethoxyphenyl)ethene], for which the IC50 (in the assay on MLM melanoma (setting [2]); with A-549 lung carcinoma (setting [3]); in the assay on MCF-7 breast carcinoma (setting [4]); in assay [1] (setting [5]); in the assay on SKMEL-5 melanoma) was > 25 µM in each case.
Regarding `COc1cc(/C=C/c2ccc([N+](=O)[O-])cc2)cc(OC)c1OC` [compound 6l, (E)-1-(4-Nitrophenyl)-2-(3,4,5-trimethoxyphenyl)ethene], the IC50 (with MLM melanoma (setting [2]); in the assay on A-549 lung carcinoma (setting [3]); in the assay on MCF-7 breast carcinoma (setting [4]); in assay [1] (setting [5]); in the assay on SKMEL-5 melanoma) was > 25 µM in each case.
For `COc1cc(CCc2ccncc2)cc(OC)c1OC` [8i, 1-(4-Pyridyl)-2-(3,4,5-trimethoxyphenyl)ethane], the IC50 (in the assay with MLM melanoma (setting [2]); in the assay with A-549 lung carcinoma (setting [3]); with MCF-7 breast carcinoma (setting [4]); in assay [1] (setting [5]); in the assay on SKMEL-5 melanoma) was > 25 µM throughout.
Consider “(E)-1-[4-(Benzyloxy)-3,5-(dimethoxy)phenyl]-2-(4-methoxyphenyl)ethene [16j]”, for which the IC50 in the assay on MLM melanoma (read-out: Cytotoxicity ED50, MLM, MLM, MTT, six days, 8640 min) is > 25 µM.
Turning to `COc1ccc(/C=C/c2cc(OC)c(OC(C)=O)c(OC)c2)cc1` [16l, (E)-1-(4-Acetoxy-3,5-dimethoxyphenyl)-2-(4-methoxy-phenyl)ethene], the IC50 with MLM melanoma (setting [2]) came to 21 µM; with A-549 lung carcinoma (setting [3]), 16.4 µM; in the assay on MCF-7 breast carcinoma (setting [4]) it was 19.4 µM; in assay [1] (setting [5]) it was 11.7 µM; in the assay on SKMEL-5 melanoma it was 10.2 µM.
As to `COc1cc(/C=C/c2ccc(C)cc2)cc(OC)c1OC` [16d, (E)-(4-Methylphenyl)-2-(3,4,5-trimethoxyphenyl)ethene], the IC50 with MLM melanoma (setting [2]) was found to be 6.3 µM; with A-549 lung carcinoma (setting [3]), 1.1 µM; in the assay with MCF-7 breast carcinoma (setting [4]), 1.9 µM; in assay [1] (setting [5]), 0.9 µM; in the assay on SKMEL-5 melanoma, 0.8 µM.
For the compound `COc1ccc(C(=O)Nc2cc(OC)c(OC)c(OC)c2)cc1OC` [11b], the IC50 (in the assay on MLM melanoma (setting [2]); with A-549 lung carcinoma (setting [3]); in the assay with MCF-7 breast carcinoma (setting [4]); in assay [1] (setting [5]); with SKMEL-5 melanoma) was > 25 µM each time.
As to `CCCOc1ccc(/C=C/c2cc(OC)c(OC)c(OC)c2)cc1` [16b, (E)-1-(4-n-Propoxyphenyl)-2-(3,4,5-trimethoxyphenyl)ethene], the IC50 in the assay with MLM melanoma (setting [2]) was > 25 µM; with A-549 lung carcinoma (setting [3]), 9.2 µM; with MCF-7 breast carcinoma (setting [4]), 12.5 µM; in assay [1] (setting [5]), > 25 µM; with SKMEL-5 melanoma, > 25 µM.
Take `CCc1ccc(/C=C/c2cc(OC)c(OC)c(OC)c2)cc1` [16e, (E)-(4-Ethylphenyl)-2-(3,4,5-trimethoxyphenyl)ethene]: the IC50 worked out at 0.22 µM with MLM melanoma (setting [2]); 0.13 µM in the assay on A-549 lung carcinoma (setting [3]); 1.2 µM in the assay with MCF-7 breast carcinoma (setting [4]); 0.11 µM in assay [1] (setting [5]); 0.17 µM in the assay with SKMEL-5 melanoma.
`COc1ccc(/C=C/c2ccccc2)c(OC)c1OC` [6r, (E)-1-Phenyl-2-(2,3,4-trimethoxyphenyl)ethene]: the IC50 (with MLM melanoma (setting [2]); in the assay with A-549 lung carcinoma (setting [3]); in the assay on MCF-7 breast carcinoma (setting [4]); in assay [1] (setting [5]); in the assay on SKMEL-5 melanoma) was > 25 µM throughout.
For `COc1cc(/C=C/c2cc(OC)c(OC)c(OC)c2)cc(OC)c1` [6s], the IC50 (in the assay with MLM melanoma (setting [2]); with A-549 lung carcinoma (setting [3]); in the assay with MCF-7 breast carcinoma (setting [4]); in assay [1] (setting [5]); with SKMEL-5 melanoma) was > 25 µM each time.
In the case of `COc1cc(/C=C/c2ccc(OC)c(OC)c2)cc(OC)c1` [6y], the IC50 (with MLM melanoma (setting [2]); in the assay with A-549 lung carcinoma (setting [3]); in the assay with MCF-7 breast carcinoma (setting [4]); in assay [1] (setting [5]); in the assay with SKMEL-5 melanoma) was > 25 µM throughout.
Regarding `COc1cc(/C=C/c2cc(OC)c(OC)c(OC)c2)cc(OC)c1OC` [6u], the IC50 (in the assay with MLM melanoma (setting [2]); in the assay on A-549 lung carcinoma (setting [3]); in the assay on MCF-7 breast carcinoma (setting [4]); in assay [1] (setting [5]); in the assay with SKMEL-5 melanoma) was > 25 µM in each case.
For `COc1ccc(/C=C/c2ccc(OC)c(OC)c2)cc1` [16h, (E)-(4-Methoxyphenyl)-2-(3,4-dimethoxyphenyl)ethene], the IC50 with MLM melanoma (setting [2]) is > 25 µM; in the assay on A-549 lung carcinoma (setting [3]), 11.7 µM; in the assay on MCF-7 breast carcinoma (setting [4]), > 25 µM; in assay [1] (setting [5]), > 25 µM; in the assay with SKMEL-5 melanoma, > 25 µM.
Take `COc1cc(CNc2cc(OC)c(OC)c(OC)c2)cc(OC)c1OC` [12f]: the IC50 (in the assay on MLM melanoma (setting [2]); in the assay with A-549 lung carcinoma (setting [3]); in the assay on MCF-7 breast carcinoma (setting [4]); in assay [1] (setting [5]); in the assay on SKMEL-5 melanoma) was > 25 µM each time.
`COc1cc(/C=C/c2ccc(Br)cc2)cc(OC)c1OC` [6h]: the IC50 with MLM melanoma (setting [2]) came to 5.13 µM; in the assay on A-549 lung carcinoma (setting [3]), 6.47 µM; in the assay with MCF-7 breast carcinoma (setting [4]), 9.14 µM; in assay [1] (setting [5]) it was 12.7 µM; with SKMEL-5 melanoma it was 6.53 µM.
`COc1cc(/C=C/c2ccc(OC)c(OC)c2OC)cc(OC)c1OC` [6t]: the IC50 in the assay with MLM melanoma (setting [2]) came out at 23.9 µM; in the assay on A-549 lung carcinoma (setting [3]), 12.5 µM; with MCF-7 breast carcinoma (setting [4]), 14.7 µM; in assay [1] (setting [5]) it was 10.3 µM; in the assay on SKMEL-5 melanoma, 10.6 µM.
Regarding `COc1cc(CCc2ccccc2)cc(OC)c1OC` [8f], the IC50 (in the assay with MLM melanoma (setting [2]); with A-549 lung carcinoma (setting [3]); in the assay with MCF-7 breast carcinoma (setting [4]); in assay [1] (setting [5]); with SKMEL-5 melanoma) was > 25 µM throughout.
In the case of `COc1ccc(CCc2ccccc2)c(OC)c1OC` [8r], the IC50 (in the assay with MLM melanoma (setting [2]); in the assay with A-549 lung carcinoma (setting [3]); with MCF-7 breast carcinoma (setting [4]); in assay [1] (setting [5]); in the assay on SKMEL-5 melanoma) was > 25 µM each time.
For the compound `COc1cc(/C=C/c2ccccc2)cc(OC)c1OC` [6f], the IC50 (in the assay with MLM melanoma (setting [2]); in the assay with A-549 lung carcinoma (setting [3]); with MCF-7 breast carcinoma (setting [4]); in assay [1] (setting [5]); in the assay on SKMEL-5 melanoma) was > 25 µM in each case.
With `COc1cc(NC(=O)c2cc(OC)c(OC)c(OC)c2)cc(OC)c1OC` [11f], the IC50 (with MLM melanoma (setting [2]); in the assay on A-549 lung carcinoma (setting [3]); in the assay on MCF-7 breast carcinoma (setting [4]); in assay [1] (setting [5]); in the assay with SKMEL-5 melanoma) was > 25 µM throughout.
For the compound `COc1cc(/C=C/c2ccc(Cl)cc2)cc(OC)c1OC` [6g], the IC50 (with MLM melanoma (setting [2]); in the assay on A-549 lung carcinoma (setting [3]); in the assay with MCF-7 breast carcinoma (setting [4]); in assay [1] (setting [5]); in the assay on SKMEL-5 melanoma) was > 25 µM in each case.
`COc1cc(CCc2ccc(NC(C)=O)cc2)cc(OC)c1OC` [compound 8m, 1-(4-Acetamidophenyl)-2-(3,4,5-trimethoxyphenyl)ethane]: the IC50 (in the assay with MLM melanoma (setting [2]); in the assay with A-549 lung carcinoma (setting [3]); with MCF-7 breast carcinoma (setting [4]); in assay [1] (setting [5]); with SKMEL-5 melanoma) was > 25 µM throughout.
